Measurements: patent US20240140941A1, “DERIVATIVE OF 2,5-DIKETOPIPERAZINE COMPOUND, AND PREPARATION METHOD THEREFOR, PHARMACEUTICAL COMPOSITION THEREOF AND USE THEREOF” (DALIAN WZ PROBIOTICS AD HEALTH CO., LTD, priority 2020, published 2024)
Where a name gives a salt, the structure may show the parent alone. Read-outs that look alike come from different tables or passages of the source.

Experiments:
HT-29 = test: Inhibition test on cell proliferation (MTT), HT-29; type: cell-based, human; settings: 72 hours of drug treatment
Procedure: Tumor cells (NCI-H460, BxPC-3, HT-29, HCC-LM3) in the logarithmic growth phase were digested, centrifuged, and the supernatants were removed. Cells were resuspended by adding fresh culture medium, and counted using a cell counting plate. 100 μL of culture medium (containing cells) was added to a 96-well plate according to the standard of 2000 to 6000 cells per well and incubated in an incubator (37° C., 5% CO2) for 24 hours. After the cells were completely adhered to the wall, the test sample and Plinabulin were diluted to different concentrations using fresh culture medium, and 4 wells were set for each concentration. After 72 hours of drug treatment, the culture medium was removed, and 20 μL of MTT at a concentration of 5 mg/mL was added to each well. After 3-4 hours in the incubator, the MTT was discarded, and 100 μL of DMSO was added to each well, and placed in a 96-well plate shaker to completely dissolve the purple formazan. Subsequently, the absorbance (OD value) was detected at a wavelength of 490 nm using a microplate reader. The experiment also required setting up zero-setting wells (blank culture medium, MTT, DMSO). Cell inhibition rate=1−(OD value of drug-dosed group−OD value of zero-setting group)/(OD value of blank group−OD value of zero-setting group)×100%.

BxPC-3 = test: Inhibition test on cell proliferation (MTT), BxPC-3; type: cell-based, human; settings: 72 hours of drug treatment, MTT, read-out: IC50 (nM) BxPC-3
Outline: (§1)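 Cells plated at 2000-6000 per well, allowed to adhere for 24 h, then exposed to serially diluted compound for 72 h at 37 °C, 5% CO2. Viability read by MTT reduction, with formazan dissolved in DMSO and absorbance taken at 490 nm. Inhibition rate calculated relative to untreated and zero-setting wells.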

HCC-LM3 = test: Inhibition test on cell proliferation (MTT), HCC-LM3; type: cell-based, human; settings: 72 hours of drug treatment, MTT, read-out: IC50 (nM) HCC-LM3
Outline: as §1

NCI-H460 = test: Inhibition test on cell proliferation (MTT), NCI-H460; type: cell-based, human; settings: 72 hours of drug treatment, MTT, read-out: IC50 (nM) NCI-H460
Outline: as §1

[1] = Compound solubility experiment, Method 2: about 2 mg salt in 0.2 mL ultrapure water, dissolution observed; type: physicochemical; settings: 37 °C, thermodynamic from solid, salts, 37±1° C., shaken 24 hours
Procedure: Method 2: A 0.5 mL brown EP tube was taken, about 2 mg of hydrochloride of derivatives of 2,5-diketopiperazine compounds was weighed respectively, and 0.2 mL of ultrapure water was added thereto. The mixture was vortexed, put into an incubation shaker, maintained at a temperature of (37±1° C.), shaken at 100 r/min for 24 hours, so as to achieve full dissolution equilibrium. The dissolution of the mixture was observed.

[2] = Compound solubility experiment, Method 1: equilibrium solubility in pure water, LC-MS; type: physicochemical; settings: 37 °C, thermodynamic from solid; ultrapure water, 37±1° C., shaken 24 hours
Procedure: Method 1: A 1.5 mL brown EP tube was taken, about 1 mg of compound was weighed respectively, and 1 mL of ultrapure water was added thereto. The mixture was vortexed, and sonicated until the compound was no longer dissolved (the solution was turbid or had suspended particles). The mixture was put into an incubation shaker, maintained at a temperature of (37±1° C.), shaken at 100 r/min for 24 hours, so as to achieve full dissolution equilibrium. After 24 hours, the supernatant was quickly filtered through a 0.45 μm microporous membrane, and the initial filtrate was discarded. 200 μL of the renewed filtrate was taken and diluted with 200 μL of methanol. The assay was repeated at least three times. According to the chromatographic conditions, the sample was injected by LC-MS, and the peak area was measured and the equilibrium solubility of each 2,5-diketopiperazine derivative in pure water was calculated.

| Compound | IC50 (HT-29; hydrochloride) [nM] | IC50 (BxPC-3; hydrochloride) [nM] | IC50 (HCC-LM3; hydrochloride) [nM] | IC50 (NCI-H460; hydrochloride) [nM] | solubility at 24 h [1] [µg/mL] | IC50 (HT-29) [nM] | solubility at 24 h [2] [µg/mL] | melting point [°C] | IC50 (BxPC-3) [nM] | IC50 (HCC-LM3) [nM] | IC50 (NCI-H460; Homo sapiens, NCI-H460, 72 h) [nM] |
| --- | --- | --- | --- | --- | --- | --- | --- | --- | --- | --- | --- |
| CC(C)c1c(/C=c2\[nH]c(=O)/c(=C/c3ccccc3)[nH]c2=O)ncn1CCCN1CCOCC1 [PLN-2-5-1, (3Z,6Z)-3-Benzylidene-6-((5-isopropyl-1-(3-morpholinyl)propylimidazol-4-yl)methylene)piperazine-2,5-dione, hydrochloride] | 11.8 ± 5.52 | 9.73 ± 0.3 | 12.4 ± 2.68 | 17.8 ± 0.55 | > 10000 | – | – | – | – | – | – |
| CC(C)c1c(/C=c2\[nH]c(=O)/c(=C/c3cccc(F)c3)[nH]c2=O)ncn1CCCN1CCOCC1 [PLN-2-9-1, (3Z,6Z)-3-(3-Fluorophenyl)methylene-6-((5-isopropyl-1-(3-morpholinyl)propylimidazol-4-yl)methylene)piperazine-2,5-dione, hydrochloride] | 6.22 ± 1.61 | 5.76 ± 1 | 6.99 ± 0.59 | 8.87 ± 0.05 | > 10000 | – | – | – | – | – | – |
| CC(C)c1c(/C=c2\[nH]c(=O)/c(=C/c3cc(F)cc(F)c3)[nH]c2=O)ncn1CCCN1CCOCC1 [PLN-2-62-1, (3Z,6Z)-3-(3,5-Difluorophenyl)methylene-6-((5-isopropyl-1-(3-morpholinyl)propylimidazol-4-yl)methylene)piperazine-2,5-dione, hydrochloride] | 3.79 ± 0.04 | 3.75 ± 0.06 | 5.32 ± 1.38 | 6.87 ± 0.47 | > 10000 | – | – | – | – | – | – |
| CC(C)c1c(/C=c2\[nH]c(=O)/c(=C/c3cccc(Oc4ccc(F)cc4)c3)[nH]c2=O)ncn1CCCN1CCOCC1 [PLN-2-2-1, hydrochloride] | 1.5 ± 0.58 | 1.21 ± 0.21 | 1.76 ± 0.3 | 2.8 ± 1.15 | > 10000 | – | – | – | – | – | – |
| O=c1[nH]/c(=C\c2ncn(CCCN3CCOCC3)c2C2CC2)c(=O)[nH]/c1=C\c1cccc(F)c1 [PLN-2-10-1, (3Z,6Z)-3-(3-Fluorophenyl)methylene-6-((5-cyclopropyl-1-(3-morpholinyl)propylimidazol-4-yl)methylene)piperazine-2,5-dione, hydrochloride] | 11.1 ± 1.39 | 12 ± 1.27 | 12 ± 2.67 | 18.37 ± 0.13 | > 10000 | – | – | – | – | – | – |
| CC(C)c1c(/C=c2\[nH]c(=O)/c(=C/c3cc(F)ccc3F)[nH]c2=O)ncn1CCCN1CCOCC1 [PLN-2-7-1, (3Z,6Z)-3-(2,5-Difluorophenyl)methylene-6-((5-isopropyl-1-(3-morpholinyl)propylimidazol-4-yl)methylene)piperazine-2,5-dione, hydrochloride] | 5.61 ± 1.96 | 4.83 ± 0.2 | 4 ± 1.5 | 6.93 ± 4.85 | > 10000 | – | – | – | – | – | – |
| O=c1[nH]/c(=C\c2ncn(CCCN3CCOCC3)c2C2CC2)c(=O)[nH]/c1=C\c1cccc(Oc2ccc(F)cc2)c1 [PLN-2-4-1, (3Z,6Z)-3-(3-(p-Fluorophenoxy)phenyl)methylene-6-((5-cyclopropyl-1-(3-morpholinyl)propylimidazol-4-yl)methylene)piperazine-2,5-dione, hydrochloride] | – | – | – | 23.8 ± 1.36 | > 10000 | – | – | – | – | – | – |
| CC(C)c1c(/C=c2\[nH]c(=O)/c(=C/c3cccc(Oc4ccc(F)cc4)c3)[nH]c2=O)ncn1CCCN1CCOCC1 [PLN-2-2] | – | – | – | – | – | 3.83 ± 0.43 | < 0.5 | 194 to 195 | 4.63 ± 0.16 | 5.58 ± 1.03 | 5.25 ± 0.49 |
| CC(C)c1c(/C=c2\[nH]c(=O)/c(=C/c3ccc(F)c(F)c3)[nH]c2=O)ncn1CCCN1CCOCC1 [PLN-2-63-1, hydrochloride] | – | 50.1 ± 7.79 | 66.6 ± 4.98 | 94.7 ± 9.48 | > 10000 | – | – | – | – | – | – |
